For 28 compounds, IC50 results are on record in patent US12466820B2, “Amino quinazoline derivatives as P2X3 inhibitors” (CHIESI FARMACEUTICI S.p.A., priority 2019, dated 2025).

Counter-ions that a name gives are not always drawn.

The assay deals with T1, h P2X3 (Homo sapiens, UniProt P56373).
T1 sequence (P56373 1-397): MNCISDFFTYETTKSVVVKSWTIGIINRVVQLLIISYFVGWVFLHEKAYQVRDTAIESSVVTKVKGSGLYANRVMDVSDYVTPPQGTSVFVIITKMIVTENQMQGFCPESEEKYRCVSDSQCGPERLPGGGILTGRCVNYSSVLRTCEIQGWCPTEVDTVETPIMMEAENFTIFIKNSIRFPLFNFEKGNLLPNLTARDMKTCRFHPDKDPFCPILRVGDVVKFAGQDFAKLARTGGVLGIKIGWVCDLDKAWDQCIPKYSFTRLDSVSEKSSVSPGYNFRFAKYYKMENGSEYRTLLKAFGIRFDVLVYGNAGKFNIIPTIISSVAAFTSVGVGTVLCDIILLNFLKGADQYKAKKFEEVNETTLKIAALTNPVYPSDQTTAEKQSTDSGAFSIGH
Put plainly: In vitro electrophysiology assay for P2X3 (automated whole-cell patch clamp, Sophion Qube). The class given is cell-based. The following applies: Table 6; range of activity; inhibition of P2X3 current, agonist α,β-MeATP (800 nM). The procedure: Pharmacological Activity of the Compounds of the Invention In Vitro Electrophysiology Assay for P2X3
Cells expressing P2X3 receptors were grown according to standard practice and maintained at 37° C. in a 5% humidified CO2 atmosphere. The cells were seeded into T175 flask 2 days prior to the day of the assay and dissociated from the flasks using TrypLE when grown to confluence of 80-90%. The dissociated cells were resuspended in serum free media at a cell density of 3×10^6 cells/ml and loaded onto the Sophion Qube automated patch-clamp system. The extracellular assay buffer contained 145 mM NaCl, 4 mM KCl, 2 mM CaCl2), 1 mM MgCl2, 10 mM HEPES, and 10 mM glucose at pH 7.4. The intracellular assay solution contained 140 mM CsF, 10 mM NaCl, 10 mM EGTA, 10 mM HEPES at pH 7.2. Agonist stock solutions were prepared in H2O and diluted in bath solution prior to use. All antagonists were prepared as 10 mM stock solutions in DMSO and diluted in bath solution prior to use. All experiments were performed under the whole-cell patch clamp configuration at room temperature with 384 individual cells being voltage clamped at −60 mV simultaneously on the Sophion Qube instrument. Two baseline responses were established with the application of α,β-MeATP (800 nM), with the subsequent agonist applications being washed out using extracellular assay buffer containing 0.5 U/ml apyrase. Following the second agonist application, antagonist was incubated in the absence of α,β-MeATP for 10 minutes. After antagonist preincubation, 800 nM α,β-MeATP and antagonist were co-administered to determine the inhibitory effect of the antagonist. One concentration of an antagonist was assessed against a single cell, with different concentrations of the antagonist applied to other cells on the 384 recording substrate. The control P2X3 current amplitude was taken from the peak current amplitude from the second agonist response prior to preincubation with antagonist. The peak P2X3 current amplitude in the presence of antagonist was used to calculate the inhibitory effect at each concentration of the antagonist according to the following equation: […]
Concentration-response curves were constructed from ten different concentrations with each concentration of antagonist tested on at least two individual cells. The concentration of the antagonist to inhibit P2X3 current by 50% (IC50) was determined by fitting the data with the following equation: […]
Where ‘a’ is minimum response, ‘b’ is maximum response, ‘c’ is IC50 and ‘d’ is Hill slope.
The results for individual compounds are provided below in Table 6 and are expressed as range of activity.
The activity of the comparative examples A and B have been tested in the in vitro Electrophysiology Assay for P2X3 as described above.
A general note: In patch-clamp work, channel activity is measured electrically.
The compound `Cc1cnc(-c2cc(OC3CCOCC3)c3ncnc(NCc4ccc(C)nn4)c3c2)nc1` [Example 31, N-[(6-methylpyridazin-3-yl)methyl]-6-(5-methylpyrimidin-2-yl)-8-tetrahydropyran-4-yloxy-quinazolin-4-amine] returned a half-maximal inhibitory concentration (IC50) of 316 to 3160 nM.

For `Cc1ccc(CNc2ncnc3c(OC4CCOCC4)cc(-c4ncc(C)s4)cc23)nn1` [Example 38, N-[(6-methylpyridazin-3-yl)methyl]-6-(5-methylthiazol-2-yl)-8-tetrahydropyran-4-yloxy-quinazolin-4-amine], the IC50 fell in the range of 316 to 3160 nM.

Take `COc1cc(-n2cc(Cl)cn2)cc2c(N[C@H](C)c3ccc(C)nn3)ncnc12` [Example 100, (R)-6-(4-chloro-1H-pyrazol-1-yl)-8-methoxy-N-(1-(6-methylpyridazin-3-yl)ethyl)quinazolin-4-amine]: the IC50 is below 316 nM.

`COc1cc(-c2ccn(C)n2)cc2c(NC(C)c3nnc(C)o3)ncnc12` (stereo not shown) [Example 105] returned an IC50 of 316 to 3160 nM.

With `COc1cc(-c2ccc(F)cc2)cc2c(N[C@@H](C)c3cnc(C(F)(F)F)nc3)ncnc12` [Example 185, 6-(4-fluorophenyl)-8-methoxy-N-[(1S)-1-[2-(trifluoromethyl)pyrimidin-5-yl]ethyl]quinazolin-4-amine formate], the half-inhibitory concentration (IC50) is below 316 nM.

The compound `COc1cc(-c2ncc(C)cn2)cc2c(NCc3nc(C)no3)ncnc12` [Example 156, 8-Methoxy-N-((3-methyl-1,2,4-oxadiazol-5-yl)methyl)-6-(5-methylpyrimidin-2-yl)quinazolin-4-amine] came in with an IC50 of 316 to 3160 nM.

Compound `COc1cc(C2=CCOCC2)cc2c(NCc3ccc(C)nn3)ncnc12` [Example 188, 6-(3,6-Dihydro-2H-pyran-4-yl)-8-methoxy-N-((6-methylpyridazin-3-yl)methyl)quinazolin-4-amine] registered a half-maximal inhibitory concentration (IC50) of 3160 to 31600 nM.

As for `COc1cc(-c2ccc(C)cn2)cc2c(NCc3cc(C)on3)ncnc12` [Example 139, 8-methoxy-N-[(5-methylisoxazol-3-yl)methyl]-6-(5-methyl-2-pyridyl)quinazolin-4-amine], the IC50 was below 316 nM.

For `COc1cc(-c2ncc(C)cn2)cc2c(NC(C)c3nnc(C)s3)ncnc12` (single isomer, unassigned) [Example 125, 8-Methoxy-6-(5-methylpyrimidin-2-yl)-N-[1-(5-methyl-1,3,4-thiadiazol-2-yl)ethyl]quinazolin-4-amine], the 50% inhibitory concentration (IC50) was below 316 nM.

`COc1cc(-c2ncc(C)s2)cc2c(NCc3ncc(F)cc3F)ncnc12` [Example 118, N-((3,5-difluoropyridin-2-yl)methyl)-8-methoxy-6-(5-methylthiazol-2-yl)quinazolin-4-amine]: the IC50 is below 316 nM.

`Cc1cnc(-c2cc(OC3CCOCC3)c3ncnc(NC(C)c4ccc(C)nn4)c3c2)nc1` (single isomer, unassigned) [Example 29, N-[1-(6-methylpyridazin-3-yl)ethyl]-6-(5-methylpyrimidin-2-yl)-8-tetrahydropyran-4-yloxy-quinazolin-4-amine] yielded an IC50 of 316 to 3160 nM.

As for `COc1cc(-n2ccc(C)n2)cc2c(N[C@H](C)c3ccc(C)nn3)ncnc12` [Example 103, (R)-8-methoxy-6-(3-methyl-1H-pyrazol-1-yl)-N-(1-(6-methylpyridazin-3-yl)ethyl)quinazolin-4-amine], the IC50 lay within 316 to 3160 nM.

Take `COc1cc(-c2ncc(C)cn2)cc2c(NC(C)c3nnc(C)o3)ncnc12` (single isomer, unassigned) [Example 128]: the IC50 lay within 3160 to 31600 nM.

In turn, `Cc1noc(C(C)Nc2ncnc3c(OC4CCOCC4)cc(-c4ccc(F)cn4)cc23)n1` (single isomer, unassigned) [Example 85, 6-(5-fluoro-2-pyridyl)-N-[1-(3-methyl-1,2,4-oxadiazol-5-yl)ethyl]-8-tetrahydropyran-4-yloxy-quinazolin-4-amine] registered an IC50 below 316 nM.

`COc1cc(-c2ccc(F)cc2)cc2c(NCc3ccc(F)cn3)ncnc12` [Example 161, 6-(4-Fluorophenyl)-N-[(5-fluoro-2-pyridyl)methyl]-8-methoxy-quinazolin-4-amine] had an IC50 of 316 to 3160 nM.

On to `C[C@@H](Nc1ncnc2c(-c3cncnc3)cc(-c3ccc(F)cc3)cc12)c1cnc(C(F)(F)F)nc1` [Example 25, (R)-6-(4-fluorophenyl)-8-(pyrimidin-5-yl)-N-(1-(2-(trifluoromethyl)pyrimidin-5-yl)ethyl)quinazolin-4-amine], for which the IC50 was below 316 nM.

Compound `COc1cc(-n2ccc(F)n2)cc2c(N[C@H](C)c3ccc(C)nn3)ncnc12` [Example 101, (R)-6-(3-fluoro-1H-pyrazol-1-yl)-8-methoxy-N-(1-(6-methylpyridazin-3-yl)ethyl)quinazolin-4-amine] returned a concentration for half-maximal inhibition (IC50) of 316 to 3160 nM.

The compound `COc1cc(-n2cc(F)cn2)cc2c(N[C@H](C)c3cnc(C(F)(F)F)nc3)ncnc12` [Example 97, (R)-6-(4-fluoro-1H-pyrazol-1-yl)-8-methoxy-N-(1-(2-(trifluoromethyl)pyrimidin-5-yl)ethyl)quinazolin-4-amine] had an IC50 of 316 to 3160 nM.

`Cc1nnc([C@@H](C)Nc2ncnc3c(S(=O)(=O)N4CCOCC4)cc(-c4ccc(F)cc4)cc23)s1` (racemic) [Example 10, (Rac)-6-(4-fluorophenyl)-N-(1-(5-methyl-1,3,4-thiadiazol-2-yl)ethyl)-8-(morpholinosulfonyl)quinazolin-4-amine]: the IC50 was below 316 nM.

Take `Cc1ccc(-c2cc(OC3CCOCC3)c3ncnc(NC(C)c4nnc(C)s4)c3c2)nc1` (single isomer, unassigned) [Example 83, 6-(5-methyl-2-pyridyl)-N-[1-(5-methyl-1,3,4-thiadiazol-2-yl)ethyl]-8-tetrahydropyran-4-yloxy-quinazolin-4-amine]: the IC50 lay within 316 to 3160 nM.

As for `COc1cc(-n2ccc(Cl)n2)cc2c(NC(C)c3cnc(C(F)(F)F)nc3)ncnc12` (stereo not shown) [Example 95, 6-(3-Chloro-1H-pyrazol-1-yl)-8-methoxy-N-(1-(2-(trifluoromethyl)pyrimidin-5-yl)ethyl)quinazolin-4-amine], the IC50 was below 316 nM.

The compound `COc1cc(-c2ncc(F)cn2)cc2c(NC(C)c3nc(C)no3)ncnc12` (stereo not shown) [Example 3, 6-(5-fluoropyrimidin-2-yl)-8-methoxy-N-(1-(3-methyl-1,2,4-oxadiazol-5-yl)ethyl)quinazolin-4-amine] had an IC50 of 316 to 3160 nM.

The compound `COc1cc(-c2ccc(F)cn2)cc2c(NCc3cc[nH]c(=O)c3)ncnc12` [Example 148, 4-(((6-(5-fluoropyridin-2-yl)-8-methoxyquinazolin-4-yl)amino)methyl)pyridin-2(1H)-one] returned an IC50 of 316 to 3160 nM.

Turning to `COc1cc(-c2ncc(C)s2)cc2c(NCc3nnc(C)s3)ncnc12` [Example 114, 8-methoxy-N-((5-methyl-1,3,4-thiadiazol-2-yl)methyl)-6-(5-methylthiazol-2-yl)quinazolin-4-amine], the half-inhibitory concentration (IC50) was below 316 nM.

The compound `Cc1ccc([C@@H](C)Nc2ncnc3c(OC4CCOCC4)cc(-c4ncc(C)s4)cc23)nn1` [Example 33] displayed an IC50 below 316 nM.

Take `COc1cc(-n2ccc(Cl)n2)cc2c(NC(C)c3ccc(C)nn3)ncnc12` (stereo not shown) [Example 96, 6-(3-chloro-1H-pyrazol-1-yl)-8-methoxy-N-(1-(6-methylpyridazin-3-yl)ethyl)quinazolin-4-amine]: the IC50 lay in the range of 316 to 3160 nM.

`Cc1cnc(-c2cc(OCC(=O)O)c3ncnc(NCc4ccc(C)nn4)c3c2)nc1` [Example 55, 2-((4-(((6-methylpyridazin-3-yl)methyl)amino)-6-(5-methylpyrimidin-2-yl)quinazolin-8-yl)oxy)acetic acid dihydrochloride] displayed a concentration for half-maximal inhibition (IC50) below 316 nM.

As to `Cc1cnc(-c2cc(OC3CCOCC3)c3ncnc(NC(C)c4nnc(C)s4)c3c2)s1` (single isomer, unassigned) [Example 172, N-[1-(5-methyl-1,3,4-thiadiazol-2-yl)ethyl]-6-(5-methylthiazol-2-yl)-8-tetrahydropyran-4-yloxy-quinazolin-4-amine], the IC50 was below 316 nM.

The term IC50 denotes the concentration that inhibits the measured activity by half. A low value points to greater potency in that assay.
